According to publication PMC6591251, “Discovery of potent necroptosis inhibitors targeting RIPK1 kinase activity for the treatment of inflammatory disorder and cancer metastasis” (Cell Death & Disease, 2019):

Tests used:
Assay in all cases: RBC kinase panel
Format in all cases: biochemical
PRKX = biological target: T1, PRKX (Homo sapiens, UniProt P51817); conditions: ATP 10 μM, Data1, Data2
T1 construct: purchased Reaction Biology Corporation
In short: (§1)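 Test compound was screened at a single concentration of 1 μM, in duplicate, across a panel of 369 human kinases. Every kinase reaction contained 10 μM ATP.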

TRKB = biological target: T2, TRKB (Homo sapiens, UniProt Q16620)
T2 construct: purchased Reaction Biology Corporation
T2 sequence (Q16620 32-822): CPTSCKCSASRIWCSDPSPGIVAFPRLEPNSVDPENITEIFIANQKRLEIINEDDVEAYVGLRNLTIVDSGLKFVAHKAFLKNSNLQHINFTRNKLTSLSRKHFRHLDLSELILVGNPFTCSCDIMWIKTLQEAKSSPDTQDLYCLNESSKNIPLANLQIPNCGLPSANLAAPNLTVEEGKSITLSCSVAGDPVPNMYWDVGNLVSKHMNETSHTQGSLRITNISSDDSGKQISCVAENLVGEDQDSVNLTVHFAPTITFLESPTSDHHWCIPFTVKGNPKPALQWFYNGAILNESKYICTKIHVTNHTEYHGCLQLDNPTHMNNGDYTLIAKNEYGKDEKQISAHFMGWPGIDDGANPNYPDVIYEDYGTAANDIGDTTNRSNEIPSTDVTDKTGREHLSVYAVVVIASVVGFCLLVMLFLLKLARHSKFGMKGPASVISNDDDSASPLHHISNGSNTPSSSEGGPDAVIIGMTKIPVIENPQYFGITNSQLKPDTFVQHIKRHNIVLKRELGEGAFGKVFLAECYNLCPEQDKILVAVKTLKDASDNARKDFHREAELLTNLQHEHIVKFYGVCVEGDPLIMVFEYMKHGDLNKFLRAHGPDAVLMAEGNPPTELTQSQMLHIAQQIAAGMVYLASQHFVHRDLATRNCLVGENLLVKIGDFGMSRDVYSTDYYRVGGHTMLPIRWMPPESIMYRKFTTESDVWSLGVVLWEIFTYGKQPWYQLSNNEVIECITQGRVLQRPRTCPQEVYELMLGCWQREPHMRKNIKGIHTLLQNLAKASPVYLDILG
In short: as §1

YES/YES1 = biological target: T3, YES/YES1 (Homo sapiens, UniProt P07947); conditions: ATP 10 μM, Data1, Data2
T3 construct: purchased Reaction Biology Corporation
In short: as §1

PLK4/SAK = biological target: T4, PLK4/SAK (Homo sapiens, UniProt O00444); conditions: ATP 10 μM, Data1, Data2
T4 construct: purchased Reaction Biology Corporation
In short: as §1

FYN = biological target: T5, FYN (Homo sapiens, UniProt P06241); conditions: ATP 10 μM, Data1, Data2
T5 construct: purchased Reaction Biology Corporation
In short: as §1

SIK1 = biological target: T6, SIK1 (Homo sapiens, UniProt P57059); conditions: ATP 10 μM, Data1, Data2
T6 construct: purchased Reaction Biology Corporation
In short: as §1

TXK = biological target: T7, TXK (Homo sapiens, UniProt P42681); conditions: ATP 10 μM, Data1, Data2
T7 construct: purchased Reaction Biology Corporation
In short: as §1

ZAP70 = biological target: T8, ZAP70 (Homo sapiens, UniProt P43403); conditions: ATP 10 μM, Data1, Data2
T8 construct: purchased Reaction Biology Corporation
In short: as §1

EPHA8 = biological target: T9, EPHA8 (Homo sapiens, UniProt P29322); conditions: ATP 10 μM, Data1, Data2
T9 construct: purchased Reaction Biology Corporation
In short: as §1

RET = biological target: T10, RET (Homo sapiens, UniProt P07949); conditions: ATP 10 μM, Data1, Data2
T10 construct: purchased Reaction Biology Corporation
In short: as §1

FER = biological target: T11, FER (Homo sapiens, UniProt P16591); conditions: ATP 10 μM, Data1, Data2
T11 construct: purchased Reaction Biology Corporation
In short: as §1

CAMK2b = biological target: T12, CAMK2b (Homo sapiens, UniProt Q13554); conditions: ATP 10 μM, Data1, Data2
T12 construct: purchased Reaction Biology Corporation
In short: as §1

MST2/STK3 = biological target: T13, MST2/STK3 (Homo sapiens, UniProt Q13188); conditions: ATP 10 μM, Data1, Data2
T13 construct: purchased Reaction Biology Corporation
In short: as §1

CDK6/cyclin D1 = biological target: T14, CDK6/cyclin D1 (Homo sapiens, UniProt Q00534); conditions: ATP 10 μM, Data1, Data2
T14 construct: purchased Reaction Biology Corporation
T14 sequence (Q00534 whole entry): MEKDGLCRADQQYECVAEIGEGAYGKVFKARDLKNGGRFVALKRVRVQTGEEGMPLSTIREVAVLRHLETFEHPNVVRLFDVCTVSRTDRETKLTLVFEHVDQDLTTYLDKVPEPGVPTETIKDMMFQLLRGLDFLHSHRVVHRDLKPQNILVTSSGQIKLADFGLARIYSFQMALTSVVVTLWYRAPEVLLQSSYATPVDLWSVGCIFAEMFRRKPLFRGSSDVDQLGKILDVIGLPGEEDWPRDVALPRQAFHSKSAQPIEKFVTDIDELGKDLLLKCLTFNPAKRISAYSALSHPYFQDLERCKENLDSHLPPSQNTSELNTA
T14 sequence (P24385 whole entry partner): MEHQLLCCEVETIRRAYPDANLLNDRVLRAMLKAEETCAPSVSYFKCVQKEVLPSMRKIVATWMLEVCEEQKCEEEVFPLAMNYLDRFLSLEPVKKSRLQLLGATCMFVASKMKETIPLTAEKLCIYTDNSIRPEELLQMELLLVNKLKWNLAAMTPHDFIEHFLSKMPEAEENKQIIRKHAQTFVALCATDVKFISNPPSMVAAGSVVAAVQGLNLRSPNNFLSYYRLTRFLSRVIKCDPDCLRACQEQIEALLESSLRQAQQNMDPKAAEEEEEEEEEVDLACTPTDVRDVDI
In short: as §1

KHS/MAP4K5 = biological target: T15, KHS/MAP4K5 (Homo sapiens, UniProt Q9Y4K4); conditions: ATP 10 μM, Data1, Data2
T15 construct: purchased Reaction Biology Corporation
In short: as §1

CLK4 = biological target: T16, CLK4 (Homo sapiens, UniProt Q9HAZ1); conditions: ATP 10 μM, Data1, Data2
T16 construct: purchased Reaction Biology Corporation
In short: as §1

LATS2 = biological target: T17, LATS2 (Homo sapiens, UniProt Q9NRM7); conditions: ATP 10 μM, Data1, Data2
T17 construct: purchased Reaction Biology Corporation
In short: as §1

KSR2 = biological target: T18, KSR2 (Homo sapiens, UniProt Q6VAB6); conditions: ATP 10 μM, Data1, Data2
T18 construct: purchased Reaction Biology Corporation
In short: as §1

FGR = biological target: T19, FGR (Homo sapiens, UniProt P09769); conditions: ATP 10 μM, Data1, Data2
T19 construct: purchased Reaction Biology Corporation
In short: as §1

CAMK2d = biological target: T20, CAMK2d (Homo sapiens, UniProt Q13557); conditions: ATP 10 μM, Data1, Data2
T20 construct: purchased Reaction Biology Corporation
In short: as §1

c-Kit = biological target: T21, c-Kit (Homo sapiens, UniProt P10721); conditions: ATP 10 μM, Data1, Data2
T21 construct: purchased Reaction Biology Corporation
In short: as §1

PKN2/PRK2 = biological target: T22, PKN2/PRK2 (Homo sapiens, UniProt Q16513); conditions: ATP 10 μM, Data1, Data2
T22 construct: purchased Reaction Biology Corporation
In short: as §1

PKCa = biological target: T23, PKCa (Homo sapiens, UniProt P17252); conditions: ATP 10 μM, Data1, Data2
T23 construct: purchased Reaction Biology Corporation
In short: as §1

LYN = biological target: T24, LYN (Homo sapiens, UniProt P07948); conditions: ATP 10 μM, Data1, Data2
T24 construct: purchased Reaction Biology Corporation
T24 sequence (P07948 whole entry): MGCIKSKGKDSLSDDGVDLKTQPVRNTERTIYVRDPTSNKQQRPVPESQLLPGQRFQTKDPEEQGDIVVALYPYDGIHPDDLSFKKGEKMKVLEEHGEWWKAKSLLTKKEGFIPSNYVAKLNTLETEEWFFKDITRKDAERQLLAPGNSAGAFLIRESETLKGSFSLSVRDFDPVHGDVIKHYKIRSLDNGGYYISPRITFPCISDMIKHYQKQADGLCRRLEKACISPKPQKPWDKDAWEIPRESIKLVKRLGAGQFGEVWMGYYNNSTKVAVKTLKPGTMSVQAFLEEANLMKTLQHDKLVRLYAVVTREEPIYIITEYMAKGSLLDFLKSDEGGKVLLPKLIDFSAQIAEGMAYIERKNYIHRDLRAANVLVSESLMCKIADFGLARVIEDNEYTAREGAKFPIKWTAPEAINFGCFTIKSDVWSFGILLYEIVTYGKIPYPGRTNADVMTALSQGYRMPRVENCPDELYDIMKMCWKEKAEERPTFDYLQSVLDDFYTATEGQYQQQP
In short: as §1

TRKC = biological target: T25, TRKC (Homo sapiens, UniProt Q16288)
T25 construct: purchased Reaction Biology Corporation
T25 sequence (Q16288 32-839): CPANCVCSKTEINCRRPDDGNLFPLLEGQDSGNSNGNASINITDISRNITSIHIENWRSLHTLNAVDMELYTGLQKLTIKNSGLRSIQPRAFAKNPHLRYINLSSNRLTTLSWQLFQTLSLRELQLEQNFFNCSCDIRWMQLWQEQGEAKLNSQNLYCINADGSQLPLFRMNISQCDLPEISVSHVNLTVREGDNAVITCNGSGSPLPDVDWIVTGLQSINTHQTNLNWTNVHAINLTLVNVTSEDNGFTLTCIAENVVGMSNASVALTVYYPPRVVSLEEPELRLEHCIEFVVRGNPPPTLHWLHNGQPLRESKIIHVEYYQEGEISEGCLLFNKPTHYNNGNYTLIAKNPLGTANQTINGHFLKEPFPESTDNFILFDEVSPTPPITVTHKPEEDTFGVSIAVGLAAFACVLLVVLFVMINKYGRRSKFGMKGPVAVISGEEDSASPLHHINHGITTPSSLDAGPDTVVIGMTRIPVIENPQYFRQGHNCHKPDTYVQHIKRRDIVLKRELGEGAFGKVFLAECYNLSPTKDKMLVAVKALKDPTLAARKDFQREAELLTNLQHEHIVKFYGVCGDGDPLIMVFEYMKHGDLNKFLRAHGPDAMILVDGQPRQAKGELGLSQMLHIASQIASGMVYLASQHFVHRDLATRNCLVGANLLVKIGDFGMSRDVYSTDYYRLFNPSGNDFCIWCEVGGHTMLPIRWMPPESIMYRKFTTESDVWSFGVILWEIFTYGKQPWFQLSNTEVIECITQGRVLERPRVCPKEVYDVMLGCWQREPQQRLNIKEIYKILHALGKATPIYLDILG
In short: as §1

RIPK3 = biological target: T26, RIPK3 (Homo sapiens, UniProt Q9Y572); conditions: ATP 10 μM, Data1, Data2
T26 construct: purchased Reaction Biology Corporation
In short: as §1

P38g = biological target: T27, P38g (Homo sapiens, UniProt P53778); conditions: ATP 10 μM, Data1, Data2
T27 construct: purchased Reaction Biology Corporation
In short: as §1

MEK1 = biological target: T28, MEK1 (Homo sapiens, UniProt Q02750); conditions: ATP 10 μM, Data1, Data2
T28 construct: purchased Reaction Biology Corporation
In short: as §1

CAMK2g = biological target: T29, CAMK2g (Homo sapiens, UniProt Q13555); conditions: ATP 10 μM, Data1, Data2
T29 construct: purchased Reaction Biology Corporation
In short: as §1

PYK2 = biological target: T30, PYK2 (Homo sapiens, UniProt Q14289); conditions: ATP 10 μM, Data1, Data2
T30 construct: purchased Reaction Biology Corporation
T30 sequence (Q14289 whole entry): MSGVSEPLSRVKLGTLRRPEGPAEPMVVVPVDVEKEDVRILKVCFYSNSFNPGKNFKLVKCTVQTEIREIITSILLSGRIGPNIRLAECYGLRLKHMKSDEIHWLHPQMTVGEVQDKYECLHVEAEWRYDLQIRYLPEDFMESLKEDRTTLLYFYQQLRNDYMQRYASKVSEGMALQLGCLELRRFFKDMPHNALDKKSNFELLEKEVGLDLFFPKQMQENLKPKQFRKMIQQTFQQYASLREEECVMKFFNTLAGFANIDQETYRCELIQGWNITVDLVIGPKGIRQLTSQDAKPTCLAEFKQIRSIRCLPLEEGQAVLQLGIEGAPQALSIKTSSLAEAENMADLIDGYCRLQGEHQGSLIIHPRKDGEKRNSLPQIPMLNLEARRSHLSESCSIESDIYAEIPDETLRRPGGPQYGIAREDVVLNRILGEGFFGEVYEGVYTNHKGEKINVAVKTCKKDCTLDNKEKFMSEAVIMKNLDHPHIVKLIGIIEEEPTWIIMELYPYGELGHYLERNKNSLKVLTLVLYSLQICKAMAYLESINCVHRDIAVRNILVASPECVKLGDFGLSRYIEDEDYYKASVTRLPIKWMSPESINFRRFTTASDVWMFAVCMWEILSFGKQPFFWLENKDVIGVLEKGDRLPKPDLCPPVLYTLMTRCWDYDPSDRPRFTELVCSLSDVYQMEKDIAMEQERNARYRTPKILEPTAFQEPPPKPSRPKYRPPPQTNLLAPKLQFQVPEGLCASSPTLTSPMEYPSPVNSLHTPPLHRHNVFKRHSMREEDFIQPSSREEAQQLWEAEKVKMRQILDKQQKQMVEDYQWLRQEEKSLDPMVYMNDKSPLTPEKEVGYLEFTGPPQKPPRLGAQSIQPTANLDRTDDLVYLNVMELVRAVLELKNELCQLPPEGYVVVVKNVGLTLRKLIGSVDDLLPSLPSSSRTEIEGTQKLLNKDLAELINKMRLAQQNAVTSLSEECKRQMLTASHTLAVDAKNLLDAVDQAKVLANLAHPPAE
In short: as §1

NEK4 = biological target: T31, NEK4 (Homo sapiens, UniProt P51957); conditions: ATP 10 μM, Data1, Data2
T31 construct: purchased Reaction Biology Corporation
In short: as §1

CK1a1L = biological target: T32, CK1a1L (Homo sapiens, UniProt Q8N752); conditions: ATP 10 μM, Data1, Data2
T32 construct: purchased Reaction Biology Corporation
T32 sequence (Q8N752 whole entry): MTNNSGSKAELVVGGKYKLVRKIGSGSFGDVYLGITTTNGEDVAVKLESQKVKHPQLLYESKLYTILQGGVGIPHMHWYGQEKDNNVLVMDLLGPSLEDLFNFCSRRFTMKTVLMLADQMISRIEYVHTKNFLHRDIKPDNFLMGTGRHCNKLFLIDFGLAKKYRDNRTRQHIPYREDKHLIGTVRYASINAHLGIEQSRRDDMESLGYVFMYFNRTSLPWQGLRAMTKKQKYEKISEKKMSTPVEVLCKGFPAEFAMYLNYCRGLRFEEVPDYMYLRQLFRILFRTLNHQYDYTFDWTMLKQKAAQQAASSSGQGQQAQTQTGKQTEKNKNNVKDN
In short: as §1

NEK11 = biological target: T33, NEK11 (Homo sapiens, UniProt Q8NG66); conditions: ATP 10 μM, Data1, Data2
T33 construct: purchased Reaction Biology Corporation
T33 sequence (Q8NG66 whole entry): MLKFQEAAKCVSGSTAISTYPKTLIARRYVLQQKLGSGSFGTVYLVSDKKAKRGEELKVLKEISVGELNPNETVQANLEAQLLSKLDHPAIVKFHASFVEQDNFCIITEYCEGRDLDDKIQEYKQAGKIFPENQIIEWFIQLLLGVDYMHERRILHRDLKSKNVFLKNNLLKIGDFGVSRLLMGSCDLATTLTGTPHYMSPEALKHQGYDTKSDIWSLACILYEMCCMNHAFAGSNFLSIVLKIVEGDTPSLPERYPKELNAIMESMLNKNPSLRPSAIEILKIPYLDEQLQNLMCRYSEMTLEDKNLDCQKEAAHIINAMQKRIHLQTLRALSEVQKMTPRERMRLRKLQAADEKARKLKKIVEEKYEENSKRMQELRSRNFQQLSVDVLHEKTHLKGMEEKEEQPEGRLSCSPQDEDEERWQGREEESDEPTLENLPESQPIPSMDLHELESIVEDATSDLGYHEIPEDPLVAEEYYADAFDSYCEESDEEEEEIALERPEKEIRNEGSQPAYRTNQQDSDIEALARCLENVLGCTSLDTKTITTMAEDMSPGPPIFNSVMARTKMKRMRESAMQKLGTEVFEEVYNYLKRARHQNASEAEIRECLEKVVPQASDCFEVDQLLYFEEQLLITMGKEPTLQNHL
In short: as §1

CC(=O)Nc1nc2ccc(-c3cnc(C)c(NC(=O)OC4CCCCC4)c3)cc2s1 [PK68, cyclohexyl (5-(2-acetamidobenzo[d]thiazol-6-yl)-2-methylpyridin-3-yl)carbamate]
Activity% (PRKX; 1 μM): 103.46% | activity at 1 µM (PRKX): 104% | Activity% (TRKB; 1 μM, ATP 10 μM, Data1, Data2): 41.21% | activity at 1 µM (TRKB; 1 μM, ATP 10 μM, Data1, Data2): 41.2% | inhibition at 1 µM (TRKB; at 1000 nM): > 50% | Activity% (YES/YES1; 1 μM): 87.91% | activity at 1 µM (YES/YES1): 89.2% | Activity% (PLK4/SAK; 1 μM): 89.27% | activity at 1 µM (PLK4/SAK): 91.8% | Activity% (FYN; 1 μM): 102.88% | activity at 1 µM (FYN): 104% | Activity% (SIK1; 1 μM): 97.74% | activity at 1 µM (SIK1): 98.4% | Activity% (TXK; 1 μM): 99.58% | activity at 1 µM (TXK): 101% | Activity% (ZAP70; 1 μM): 105.87% | activity at 1 µM (ZAP70): 107% | Activity% (EPHA8; 1 μM): 99.05% | activity at 1 µM (EPHA8): 100% | Activity% (RET; 1 μM): 66.89% | activity at 1 µM (RET): 67.7% | Activity% (FER; 1 μM): 100.70% | activity at 1 µM (FER): 102% | Activity% (CAMK2b; 1 μM): 99.42% | activity at 1 µM (CAMK2b): 102% | Activity% (MST2/STK3; 1 μM): 109.16% | activity at 1 µM (MST2/STK3): 109% | Activity% (CDK6/cyclin D1; 1 μM): 93.73% | activity at 1 µM (CDK6/cyclin D1): 93.8% | Activity% (KHS/MAP4K5; 1 μM): 75.34% | activity at 1 µM (KHS/MAP4K5): 76.5% | Activity% (CLK4; 1 μM): 70.07% | activity at 1 µM (CLK4): 71% | Activity% (LATS2; 1 μM): 93.96% | activity at 1 µM (LATS2): 94.4% | Activity% (KSR2; 1 μM): 99.64% | activity at 1 µM (KSR2): 100% | Activity% (FGR; 1 μM): 82.32% | activity at 1 µM (FGR): 87.2% | Activity% (CAMK2d; 1 μM): 98.13% | activity at 1 µM (CAMK2d): 98.9% | Activity% (c-Kit; 1 μM): 75.47% | activity at 1 µM (c-Kit): 77.5% | Activity% (PKN2/PRK2; 1 μM): 62.44% | activity at 1 µM (PKN2/PRK2): 62.6% | Activity% (PKCa; 1 μM): 98.94% | activity at 1 µM (PKCa): 99.5% | Activity% (LYN; 1 μM): 92.90% | activity at 1 µM (LYN): 95.3% | Activity% (TRKC; 1 μM, ATP 10 μM, Data1, Data2): 33.96% | activity at 1 µM (TRKC; 1 μM, ATP 10 μM, Data1, Data2): 35.4% | inhibition at 1 µM (TRKC; at 1000 nM): > 50% | Activity% (RIPK3; 1 μM): 104.99% | activity at 1 µM (RIPK3): 106% | Activity% (P38g; 1 μM): 105.38% | activity at 1 µM (P38g): 109% | Activity% (MEK1; 1 μM): 97.25% | activity at 1 µM (MEK1): 99% | Activity% (CAMK2g; 1 μM): 105.45% | activity at 1 µM (CAMK2g): 107% | Activity% (PYK2; 1 μM): 95.64% | activity at 1 µM (PYK2): 95.9% | Activity% (NEK4; 1 μM): 97.97% | activity at 1 µM (NEK4): 98.9% | Activity% (CK1a1L; 1 μM): 103.24% | activity at 1 µM (CK1a1L): 106% | Activity% (NEK11; 1 μM): 81.13% | activity at 1 µM (NEK11): 85.4%
